Experimental data: US20050227999A1, “Diarylamine derivatives as calcium channel blockers” (NeuroMed Technologies Inc., priority 2004, published 2005)
Like-named read-outs stand apart in the source and are kept apart here.

Assays:
[1] = molecular target: T1, rat brain N-type calcium channel subunits (α1B+α2δ+β1b cDNA subunits) (Rattus norvegicus, UniProt Q02294); assay: N-type calcium channel block, whole cell patch clamp in transfected HEK 293 cells; type: cell-based; details: holding potential −80 mV to +10 mV
T1 construct: expressed in transfected cells; host or cells: HEK 293
T1 sequence (Q02294 whole entry): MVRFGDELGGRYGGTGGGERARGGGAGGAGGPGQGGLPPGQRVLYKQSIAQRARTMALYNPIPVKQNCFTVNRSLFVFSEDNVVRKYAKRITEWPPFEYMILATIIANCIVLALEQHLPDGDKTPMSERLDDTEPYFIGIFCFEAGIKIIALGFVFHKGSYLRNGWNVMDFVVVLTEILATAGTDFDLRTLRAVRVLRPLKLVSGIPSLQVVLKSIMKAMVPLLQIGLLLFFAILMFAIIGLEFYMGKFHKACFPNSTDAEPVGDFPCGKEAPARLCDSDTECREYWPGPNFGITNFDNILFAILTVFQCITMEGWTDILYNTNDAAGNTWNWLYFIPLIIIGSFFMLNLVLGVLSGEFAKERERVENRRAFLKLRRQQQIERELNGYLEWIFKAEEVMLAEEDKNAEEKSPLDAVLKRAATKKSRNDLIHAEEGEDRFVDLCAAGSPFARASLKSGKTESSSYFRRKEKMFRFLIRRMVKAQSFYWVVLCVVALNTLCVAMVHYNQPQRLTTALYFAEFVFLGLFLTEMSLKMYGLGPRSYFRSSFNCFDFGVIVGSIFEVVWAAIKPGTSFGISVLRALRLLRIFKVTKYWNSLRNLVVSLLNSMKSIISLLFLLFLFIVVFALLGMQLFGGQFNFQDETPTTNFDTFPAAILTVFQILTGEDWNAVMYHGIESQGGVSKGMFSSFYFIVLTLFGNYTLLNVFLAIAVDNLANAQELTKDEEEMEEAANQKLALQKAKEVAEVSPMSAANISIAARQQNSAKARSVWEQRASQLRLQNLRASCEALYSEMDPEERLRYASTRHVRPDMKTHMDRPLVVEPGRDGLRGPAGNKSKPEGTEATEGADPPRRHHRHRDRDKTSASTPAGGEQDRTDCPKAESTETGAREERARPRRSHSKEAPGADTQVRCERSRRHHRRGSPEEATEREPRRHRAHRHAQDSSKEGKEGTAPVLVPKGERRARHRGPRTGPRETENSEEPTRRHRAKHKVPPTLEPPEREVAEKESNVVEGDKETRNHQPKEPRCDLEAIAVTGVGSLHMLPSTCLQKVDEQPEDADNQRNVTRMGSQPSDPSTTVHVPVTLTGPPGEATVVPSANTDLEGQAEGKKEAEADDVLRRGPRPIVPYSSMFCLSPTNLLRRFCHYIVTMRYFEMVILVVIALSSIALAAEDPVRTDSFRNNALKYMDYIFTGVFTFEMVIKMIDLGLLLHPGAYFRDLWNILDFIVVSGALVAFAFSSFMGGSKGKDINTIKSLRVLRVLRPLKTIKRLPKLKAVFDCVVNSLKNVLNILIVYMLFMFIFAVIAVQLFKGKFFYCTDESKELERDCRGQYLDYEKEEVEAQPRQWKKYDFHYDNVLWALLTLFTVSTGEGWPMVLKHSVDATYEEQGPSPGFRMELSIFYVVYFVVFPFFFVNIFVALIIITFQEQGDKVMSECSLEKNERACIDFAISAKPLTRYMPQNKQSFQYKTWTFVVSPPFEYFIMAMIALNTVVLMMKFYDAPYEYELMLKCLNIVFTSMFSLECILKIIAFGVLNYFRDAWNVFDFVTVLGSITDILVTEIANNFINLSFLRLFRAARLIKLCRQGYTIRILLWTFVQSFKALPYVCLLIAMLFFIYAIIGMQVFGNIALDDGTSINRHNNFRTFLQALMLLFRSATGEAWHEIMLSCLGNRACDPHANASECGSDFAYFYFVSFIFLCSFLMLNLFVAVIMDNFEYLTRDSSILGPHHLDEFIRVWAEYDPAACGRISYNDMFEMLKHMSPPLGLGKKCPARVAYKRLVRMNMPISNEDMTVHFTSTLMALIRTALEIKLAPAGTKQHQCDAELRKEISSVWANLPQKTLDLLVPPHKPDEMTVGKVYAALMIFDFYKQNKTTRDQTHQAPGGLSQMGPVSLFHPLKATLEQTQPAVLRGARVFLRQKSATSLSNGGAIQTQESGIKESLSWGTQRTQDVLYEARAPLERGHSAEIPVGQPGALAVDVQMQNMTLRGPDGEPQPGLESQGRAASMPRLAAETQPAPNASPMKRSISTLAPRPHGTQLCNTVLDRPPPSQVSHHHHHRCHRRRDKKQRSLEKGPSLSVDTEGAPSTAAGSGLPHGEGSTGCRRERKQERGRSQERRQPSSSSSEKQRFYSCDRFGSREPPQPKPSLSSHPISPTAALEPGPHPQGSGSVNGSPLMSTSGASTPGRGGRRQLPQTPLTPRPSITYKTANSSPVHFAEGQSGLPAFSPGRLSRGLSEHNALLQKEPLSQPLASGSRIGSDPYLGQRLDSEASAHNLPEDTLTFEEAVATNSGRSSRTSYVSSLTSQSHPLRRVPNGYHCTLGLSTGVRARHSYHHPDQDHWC
T1 sequence (P54290 25-944 partner limits assumed): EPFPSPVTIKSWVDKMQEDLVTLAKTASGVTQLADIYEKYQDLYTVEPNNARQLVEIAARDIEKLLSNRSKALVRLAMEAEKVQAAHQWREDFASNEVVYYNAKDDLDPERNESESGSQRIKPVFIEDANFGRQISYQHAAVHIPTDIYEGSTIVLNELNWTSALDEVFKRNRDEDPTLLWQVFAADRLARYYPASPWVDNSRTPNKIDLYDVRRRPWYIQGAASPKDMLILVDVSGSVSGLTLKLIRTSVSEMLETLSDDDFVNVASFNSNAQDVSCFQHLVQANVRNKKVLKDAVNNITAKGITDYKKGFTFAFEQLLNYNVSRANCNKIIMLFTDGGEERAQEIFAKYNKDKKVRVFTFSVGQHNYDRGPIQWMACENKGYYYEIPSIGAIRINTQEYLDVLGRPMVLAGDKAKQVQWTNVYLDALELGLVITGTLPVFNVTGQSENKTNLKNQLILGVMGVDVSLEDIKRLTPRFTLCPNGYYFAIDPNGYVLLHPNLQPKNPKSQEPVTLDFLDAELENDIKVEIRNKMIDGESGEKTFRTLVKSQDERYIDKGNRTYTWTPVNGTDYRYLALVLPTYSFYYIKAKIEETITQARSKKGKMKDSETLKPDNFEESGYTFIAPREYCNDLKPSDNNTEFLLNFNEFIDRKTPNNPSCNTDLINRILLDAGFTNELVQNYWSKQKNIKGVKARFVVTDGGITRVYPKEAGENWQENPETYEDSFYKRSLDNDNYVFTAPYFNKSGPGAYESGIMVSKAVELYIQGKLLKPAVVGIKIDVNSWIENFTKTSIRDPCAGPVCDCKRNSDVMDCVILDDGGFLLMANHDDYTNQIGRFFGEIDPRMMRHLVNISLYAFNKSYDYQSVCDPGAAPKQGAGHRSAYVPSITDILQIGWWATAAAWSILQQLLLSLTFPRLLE
T1 sequence (P54290 945-1091 partner limits assumed): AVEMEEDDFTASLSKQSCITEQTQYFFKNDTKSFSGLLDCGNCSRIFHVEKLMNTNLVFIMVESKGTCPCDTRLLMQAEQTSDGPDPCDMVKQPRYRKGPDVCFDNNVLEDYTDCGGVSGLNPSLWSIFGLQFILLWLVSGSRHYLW
T1 sequence (P54283 whole entry partner): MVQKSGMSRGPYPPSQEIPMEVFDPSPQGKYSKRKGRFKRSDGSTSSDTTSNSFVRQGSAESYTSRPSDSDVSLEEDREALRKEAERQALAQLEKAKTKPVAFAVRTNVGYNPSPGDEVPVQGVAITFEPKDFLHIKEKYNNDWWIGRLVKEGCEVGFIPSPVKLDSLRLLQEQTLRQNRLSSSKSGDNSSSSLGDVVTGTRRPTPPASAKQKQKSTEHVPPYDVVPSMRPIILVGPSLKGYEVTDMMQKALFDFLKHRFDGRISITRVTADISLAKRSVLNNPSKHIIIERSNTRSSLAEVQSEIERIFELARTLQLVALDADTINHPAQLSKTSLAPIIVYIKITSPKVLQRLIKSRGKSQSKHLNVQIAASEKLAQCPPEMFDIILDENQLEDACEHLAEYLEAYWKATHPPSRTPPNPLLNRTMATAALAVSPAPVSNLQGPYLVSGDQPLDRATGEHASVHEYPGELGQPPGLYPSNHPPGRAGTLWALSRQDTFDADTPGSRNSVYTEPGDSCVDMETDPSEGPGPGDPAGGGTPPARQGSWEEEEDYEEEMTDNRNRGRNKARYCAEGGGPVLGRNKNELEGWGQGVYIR
Procedure: N-type calcium channel blocking activity was assayed in human embryonic kidney cells, HEK 293, stably transfected with the rat brain N-type calcium channel subunits (α1B+α2δ+β1b cDNA subunits). Alternatively, N-type calcium channels (α1B+α2δ+β1b cDNA subunits), L-type channels (α1C+δ+β1b cDNA subunits) and P/Q-type channels (α1A+α2δ+β1b cDNA subunits) were transiently expressed in HEK 293 cells. Briefly, cells were cultured in Dulbecco's modified eagle medium (DMEM) supplemented with 10% fetal bovine serum, 200 U/ml penicillin and 0.2 mg/ml streptomycin at 37° C. with 5% CO2. At 85% confluency cells were split with 0.25% trypsin/l mM EDTA and plated at 10% confluency on glass coverslips. At 12 hours the medium was replaced and the cells transiently transfected using a standard calcium phosphate protocol and the appropriate calcium channel cDNA's. Fresh DMEM was supplied and the cells transferred to 28° C./5% CO2. Cells were incubated for 1 to 2 days before cell recording.
Whole cell patch clamp experiments were performed using an Axopatch 200B amplifier (Axon Instruments, Burlingame, Calif.) linked to a personal computer equipped with PCLAMP software. The external and internal recording solutions contained, respectively, 5 mM BaCl2, 10 mM MgCl2, 10 mM HEPES, 40 mM TEACl, 10 mM glucose, 87.5 mM CsCl (pH 7.2) and 108 mM CsMS, 4 mM MgCl2, 9 mM EGTA, 9 mM HEPES (pH 7.2). Currents were typically elicited from a holding potential of −80 mV to +10 mV using Clampex software (Axon Instruments). Typically, currents were first elicited with low frequency stimulation (0.067 Hz) and allowed to stabilize prior to application of the compounds. The compounds were then applied during the low frequency pulse trains for two to three minutes to assess tonic block, and subsequently the pulse frequency was increased to 0.2 Hz to assess frequency dependent block. Data were analyzed using Clampfit (Axon Instruments) and SigmaPlot 4.0 (Jandel Scientific). […]

[2] = molecular target: T2, human α1G T-type channels (Homo sapiens, UniProt O43497); assay: T-type calcium channel block, patch clamp in HEK cell lines; type: cell-based
T2 construct: expressed in transfected cells
Procedure: Standard patch-clamp techniques were employed to identify blockers of T-type currents. Briefly, previously described HEK cell lines stably expressing human α1G T-type channels were used for all the recordings (passage #: 4-20, 37° C., 5% CO2). To obtain T-type currents, plastic dishes containing semi-confluent cells were positioned on the stage of a ZEISS AXIOVERT S100 microscope after replacing the culture medium with external solution (see below). Whole-cell patches were obtained using pipettes (borosilicate glass with filament, O.D.: 1.5 mm, I.D.: 0.86 mm, 10 cm length), fabricated on a SUTTER P-97 puller with resistance values of ˜5 MΩ (see below for internal solution).
In the non-inactivating protocol, the holding potential is set at −110 mV and with a pre-pulse at −100 mV for 1 second prior to the test pulse at 40 mV for 50 ms. […]
Test compounds were dissolved in external solution, 0.1-0.01% DMSO. After ˜10 min rest, they were applied by gravity close to the cell using a WPI microfil tubing. The “non-inactivated” pre-pulse was used to examine the resting block of a compound. The “inactivated” protocol was employed to study voltage-dependent block. However, the initial data shown below were mainly obtained using the non-inactivated protocol only. IC50 values are shown for various compounds of the invention in Table 4.

[3] = low frequency stimulation 0.067 Hz (tonic block), read-out: IC50 @ 0.067 Hz
[4] = pulse frequency 0.2 Hz (frequency dependent block), read-out: IC50 @ 0.2 Hz
[5] = −80 mV (inactivation protocol, voltage-dependent block), read-out: IC50 - 80 mV
[6] = −100 mV pre-pulse (non-inactivating protocol, resting block), read-out: IC50 - 100 mV
[7] = −100 mV pre-pulse (non-inactivating protocol, resting block)

Compound | IC50 [1, 3] [nM] | IC50 [1, 4] [nM] | IC50 [2, 5] [nM] | IC50 [2, 6] [nM] | IC50 - 100 mV [2, 7]
CN1CCCC(CN2CCN(C(=O)CN(c3ccccc3)c3ccccc3)CC2)C1 (stereo not shown) [Compound 10, 2-Diphenylamino-1-[4-(1-methyl-piperidin-3-ylmethyl)-piperazin-1-yl]-ethanone] | 1100 | 980 | 2000 | 10000 | –
O=C(CN1CCN(C(c2ccccc2)c2ccccc2)CC1)N(c1ccccc1)c1ccccc1 [Compound 16, 2-(4-Benzhydryl-piperazin-1-yl)-N,N-diphenyl-acetamide] | 290 | 260 | 1300 | – | no effect
O=C(CN1CCN(C(c2ccccc2)c2ccc(Cl)cc2Cl)CC1)N(c1ccccc1)c1ccccc1 (stereo not shown) [Compound 17, 2-{4-[(2,4-Dichloro-phenyl)-phenyl-methyl]-piperazin-1-yl}-N,N-diphenyl-acetamide] | 830 | 510 | 29 | 118 | –
Cc1ccc(C(c2ccccc2)N2CCN(CC(=O)N(c3ccccc3)c3ccccc3)CC2)c(C)c1 (stereo not shown) [Compound 18, 2-{4-[(2,4-Dimethyl-phenyl)-phenyl-methyl]-piperazin-1-yl}-N,N-diphenyl-acetamide] | 1760 | 1250 | 84 | 229 | –
O=C(CN1CCN(C(c2ccccc2)c2ccccc2Cl)CC1)N(c1ccccc1)c1ccccc1 (stereo not shown) [Compound 21, 2-{4-[(2-Chloro-phenyl)-phenyl-methyl]-piperazin-1-yl}-N,N-diphenyl-acetamide] | 124 | 52 | 34 | 134 | –
O=C(CN1CCN(C(c2ccccc2)c2cccc(Cl)c2Cl)CC1)N(c1ccccc1)c1ccccc1 (stereo not shown) [Compound 22, 2-{4-[(2,3-Dichloro-phenyl)-phenyl-methyl]-piperazin-1-yl}-N,N-diphenyl-acetamide] | 300 | 240 | 16 | 81 | –
CN1CCC(CN2CCN(CC(=O)N(c3ccccc3)c3ccccc3)CC2)CC1 [Compound 25, 2-[4-(1-Methyl-piperidin-4-ylmethyl)-piperazin-1-yl]-N,N-diphenyl-acetamide] | 460 | 460 | 3700 | 5700 | –
CN(C)CCCN1CCN(CC(=O)N(c2ccccc2)c2ccccc2)CC1 [Compound 26, 2-[4-(3-Dimethylamino-propyl)-piperazin-1-yl]-N,N-diphenyl-acetamide] | 350 | 340 | 1000 | – | no effect

Continued, values first:

IC50 [1, 3] [nM] | IC50 [1, 4] [nM] | IC50 [2, 5] [nM] | IC50 [2, 6] [nM] | IC50 - 100 mV [2, 7] | Compound
6630 | 6610 | 510 | 1350 | – | O=C(CN(c1ccccc1)c1ccccc1)N1CCN(C(c2ccccc2)c2ccccc2)CC1 [Compound 1, 1-(4-Benzhydryl-piperazin-1-yl)-2-diphenylamino-ethanone]
290 | 260 | 444 | 2000 | – | Cc1ccc(C(c2ccccc2)N2CCN(C(=O)CN(c3ccccc3)c3ccccc3)CC2)c(C)c1 (stereo not shown) [Compound 2, 1-{4-[(2,4-Dimethyl-phenyl)-phenyl-methyl]-piperazin-1-yl}-2-diphenylamino-ethanone]
550 | 460 | 6000 | – | no effect | O=C(CN(c1ccccc1)c1ccccc1)N1CCN(C(c2ccccc2)c2ccc(Cl)cc2Cl)CC1 (stereo not shown) [Compound 3, 1-{4-[(2,4-Dichloro-phenyl)-phenyl-methyl]-piperazin-1-yl}-2-diphenylamino-ethanone]
550 | 500 | 748 | 3800 | – | O=C(CN(c1ccccc1)c1ccccc1)N1CCN(C(c2ccccc2)c2ccc(Cl)cc2)CC1 (stereo not shown) [Compound 4, 1-{4-[(4-Chloro-phenyl)-phenyl-methyl]-piperazin-1-yl}-2-diphenylamino-ethanone]
310 | 280 | 800 | – | no effect | O=C(CN(c1ccccc1)c1ccccc1)N1CCN(C(c2ccccc2)c2cccc(Cl)c2)CC1 (stereo not shown) [Compound 5, 1-{4-[(3-Chloro-phenyl)-phenyl-methyl]-piperazin-1-yl}-2-diphenylamino-ethanone]
330 | 320 | 1200 | – | no effect | O=C(CN(c1ccccc1)c1ccccc1)N1CCN(C(c2ccccc2)c2ccccc2Cl)CC1 (stereo not shown) [Compound 6, 1-{4-[(2-Chloro-phenyl)-phenyl-methyl]-piperazin-1-yl}-2-diphenylamino-ethanone]
190 | 110 | 22 | 72 | – | O=C(CN1CCN(C(c2ccccc2)c2ccc(Cl)cc2)CC1)N(c1ccccc1)c1ccccc1 (stereo not shown) [Compound 19, 2-{4-[(4-Chloro-phenyl)-phenyl-methyl]-piperazin-1-yl}-N,N-diphenyl-acetamide]
340 | 320 | 33 | 114 | – | O=C(CN1CCN(C(c2ccccc2)c2cccc(Cl)c2)CC1)N(c1ccccc1)c1ccccc1 (stereo not shown) [Compound 20, 2-{4-[(3-Chloro-phenyl)-phenyl-methyl]-piperazin-1-yl}-N,N-diphenyl-acetamide]
